# Experimental data taken from US20110207697A1, “XANTHOHUMOL COMPOSITIONS AND METHODS FOR TREATING SKIN DISEASES OR DISORDERS” (Betal, LLC, priority 2008, published 2011).
# Read-outs that look alike come from different tables or passages of the source.
# Tests used:
# S. aureus (ATCC 6538P) = assay: Antimicrobial susceptibility, broth dilution (MIC/MBC); type: cell-based, Staphylococcus aureus
# Description: (§1) The antibacterial effects of seven hops components against five different strains of bacteria involved in primary or secondary skin and soft tissue infections was evaluated, with broth dilution methods. […] Antimicrobial susceptibility testing was performed using a broth dilution method. Gentamicin or ampicillin was used as a control to verify the methodology. A stock solution (20 mg/ml) of the test substance (or vehicle control) was prepared in dimethyl sulfoxide. Serial dilution was done in microwell plates. Reinforced Clostridial Medium was used for P. acnes (ATCC 6919). Three hundreds […] of the test substance was added to the test tube containing P. acnes (10^5 CFU/ml) in 2.7 ml of cultures grown under anaerobic conditions. Mueller-Hinston Broth suitable for culturing S. epidermidis (ATCC 12228), K. rhizophila (formerly M. luteus) (ATCC 9341), and S. aureus (ATCC […]), and Brain Heart Infusion Broth suitable for culturing S. pyogenes (ATCC 14289) were used. A total of […] of the test substance was added to the test tube containing the other microorganisms (10^5CFU/ml) in 0.9 ml of cultures grown under controlled conditions. […] Samples from those tubes that scored positive was plated onto an agar plate and incubated under controlled conditions.
# P. acnes (ATCC 6919) = assay: as above; type: cell-based, Propionibacterium acnes
# Description: as §1
# [1] = FRAP ferric reducing antioxidative power; settings: FIG. 2 radar chart
# Description: (§2) [table] […] The SOAC scores are not included in this figure; ORAC values used are the sum of lipophilic and hydrophilic results. For each assay category, scaling was made logarithmic so that the plot on the chart resembles the associated rating. […] The larger the spatial area, the higher the overall antioxidative capacity. […] Both hydrophilic and lipophilic oxygen radical absorbance capacity (ORAC) assays were carried out at Brunswick Laboratory (Wareham, Mass.) based on the modified ORACfl method reported by Ou et al. (2001 J. Agric. Food Chem. 49: 4619-4626, 2002 J. Agr. Food Chem. 50: 3122-3128). Trolox, a water-soluble vitamin E analog, was used as the calibration standard. The data are expressed as mmole of Trolox equivalents per gram (mmol TE/g). The acceptable precision of the ORAC assay is a 15% relative standard deviation. […] Hydroxyl radical ORAC (HOR-AC) is expressed as mmole caffeic acid equivalent per gram (mmol CAE/g). […] The peroxyl nitrite ORAC (NORAC) result is expressed as mmol TE/g. Alpha-tocopherol (vitamin E) was used as the calibration standard, and the singlet oxygen absorbance capacity (SOAC) result is expressed as mmole a-tocopherol equivalent (mmol VtE) per gram (Aubry et al. 1989). […] Radical-scavenging activity was measured by the change in absorbance at 517 nm with the DPPH result expressed as mmol TE/g. […] The FRAP result is expressed as mmol TE/g (Ou et al. 2002b). […]
# SOD antioxidant assay = settings: FIG. 2 radar chart
# Description: as §2
# [2] = Lipophilic oxygen radical absorbance capacity (ORAC-L); settings: lipid soluble antioxidant capacity; expressed as mmol TE/g; — = No activity detected
# From the text: (§3) Thus the ORAC method has become a widely used method for assessing antioxidant capacity in biological samples and foods. However, because of its inability to measure both hydrophilic and lipophilic antioxidants, the method has its limitations. An ORAC method for lipophilic antioxidants was further developed and validated using fluorescein as the fluorescent probe (Prior et al. 2003 J. Agric. Food Chem. 51: 3273-3279). […] In the present work, the ORAC value is expressed as the sum of values of both the water-soluble and fat-soluble parts. […] Both hydrophilic and lipophilic oxygen radical absorbance capacity (ORAC) assays were carried out at Brunswick Laboratory (Wareham, Mass.) based on the modified ORACfl method reported by Ou et al. (2001 J. Agric. Food Chem. 49: 4619-4626, 2002 J. Agr. Food Chem. 50: 3122-3128). Trolox, a water-soluble vitamin E analog, was used as the calibration standard. The data are expressed as mmole of Trolox equivalents per gram (mmol TE/g). […] Hydroxyl radical ORAC (HOR-AC) is expressed as mmole caffeic acid equivalent per gram (mmol CAE/g). […] The peroxyl nitrite ORAC (NORAC) result is expressed as mmol TE/g. […] Radical-scavenging activity was measured by the change in absorbance at 517 nm with the DPPH result expressed as mmol TE/g. […] The FRAP result is expressed as mmol TE/g (Ou et al. 2002b).
# S. pyogenes (ATCC 14289) = assay: Antimicrobial susceptibility, broth dilution (MIC/MBC); type: cell-based, Streptococcus pyogenes
# Description: as §1
# [3] = HORAC hydroxyl radical ORAC; settings: FIG. 2 radar chart
# Description: as §2
# [4] = Hydrophilic oxygen radical absorbance capacity (ORAC-H); settings: water-soluble antioxidant capacity; expressed as mmol TE/g; — = No activity detected
# From the text: as §3
compound,measurement,setting,value
"COc1cc(O)c(CC=C(C)C)c(O)c1C(=O)/C=C/c1ccc(O)cc1 [Xanthohumol (7), 3′-[3,3-dimethylallyl]-2′,4′,4-trihydroxy-6′-methoxychalcone]",MBC,S. aureus (ATCC 6538P),[100] g/mL
same,MIC,S. aureus (ATCC 6538P); 1 day,1 µg/mL
same,MIC,"S. aureus (ATCC 6538P); Staphylococcus aureus, ATCC6538P",1000 µg/mL
same,MBC,"P. acnes (ATCC 6919); Cutibacterium acnes, ATCC6919, read-out: MBC",3000 µg/mL
same,MBC,P. acnes (ATCC 6919); lowest concentration required to kill,[3] g/mL
same,MIC,"P. acnes (ATCC 6919); minimal 100% inhibitory concentration, 2 days",3 µg/mL
same,"quenching activity against ferric ion (FRAP), rank among hop components",[1],highest quenching activity
same,"quenching activity against superoxide (SOD), rank among hop components",SOD antioxidant assay,highest quenching activity
same,ORAC-L (Trolox equivalent),[2],2.1 Trolox equivalent
same,MBC,S. pyogenes (ATCC 14289),[3] g/mL
same,MIC,S. pyogenes (ATCC 14289); 1 day,1 µg/mL
same,"quenching activity against hydroxyl radical (HORAC), rank among hop components",[3],highest quenching activity
same,ORAC-H (Trolox equivalent),[4],2.1 Trolox equivalent
